According to patent US20260070905A1, “Derivatives of Imidazo[1,2-A]Pyridine with Anti-Inflammatory Activity” (Universitat de Veléncia, priority 2023, published 2026):
Entries after “also recorded” stand apart in the source; their conditions may differ.

Experiments:
[1] = target: T1, recombinant Alk5 kinase (TGFβRI) (Homo sapiens, UniProt P36897); experiment: In vitro Alk5 kinase inhibition (Kinase-Glo luminescent kinase assay); format: biochemical; details: for Alk5 kinase inhibition: in vitro kinase assay (FIG. 1); for % kinase activity reduction: values refer to a 100% reduction in activity of the inhibition control GW788388 Hydrate, concentrations of 5 and 10 μM evaluated, ATP 100 μM, 2 h
T1 construct: purchased Abcam ab105908
T1 sequence (P36897 34-503): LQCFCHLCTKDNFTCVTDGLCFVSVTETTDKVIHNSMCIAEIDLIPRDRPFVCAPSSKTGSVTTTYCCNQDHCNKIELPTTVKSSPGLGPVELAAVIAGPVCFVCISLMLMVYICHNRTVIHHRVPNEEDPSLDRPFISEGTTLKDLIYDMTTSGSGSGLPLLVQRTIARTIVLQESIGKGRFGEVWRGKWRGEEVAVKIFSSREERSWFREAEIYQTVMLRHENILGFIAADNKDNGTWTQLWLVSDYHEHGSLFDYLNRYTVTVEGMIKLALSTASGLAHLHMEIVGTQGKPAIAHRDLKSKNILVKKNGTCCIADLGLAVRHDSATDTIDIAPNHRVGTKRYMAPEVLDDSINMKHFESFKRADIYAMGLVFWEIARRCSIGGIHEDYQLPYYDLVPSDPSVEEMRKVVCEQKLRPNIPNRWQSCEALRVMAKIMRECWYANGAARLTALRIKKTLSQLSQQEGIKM
Method: For this purpose, recombinant Alk5 (Abcam, ref ab105908) was used, and kinase activity was determined using the commercial Kinase-Glo® Luminiscent kinase assay platform (Promega, ref. TB372).
For this purpose, commercially available recombinant Alk5 protein (Abcam, ref ab105908) was used, as well as the commercial Kinase-Glo® Luminiscent kinase assay platform (Promega, ref TB372), which determines the adenosine triphosphate (ATP) not consumed in the phosphorylation reaction by its conjugation to luciferin in a reaction catalyzed by the luciferase enzyme in the presence of Mg^2+. The luminescence observed is inversely proportional to kinase activity.
From this stock solution, dilutions were made in kinase buffer (Tris-HCl pH 7.5 40 mM; MgCl2 20 mM; bovine serum albumin (BSA) 0.1 mg/mL) of 10 μM and concentrations of 5 and 10 μM were evaluated.
Incubation was carried out for 2 hours at room temperature with stirring and in darkness, following the instructions for the commercial system.
After this time, 50 μL of commercial substrate (diluted 1:8) was added, left to stir for 10 minutes at room temperature, and the luminescence was read using a Luminoskan Ascent instrument (Thermo Scientific, Waltham, USA).
All reactions were performed in duplicate.

[2] = test system: THP-1-XBlue™-CD14 macrophages; experiment: MTT cytotoxicity assay on THP-1-XBlue-CD14 macrophages; format: cell-based; details: THP-1 macrophages, all concentrations used (1, 5 and 10 μM), 24 h (FIG. 2, FIG. 3B)
Excerpt: To quantify the percentage of cells that remained viable in each of the experiments, THP-1-XBlue™-CD14 macrophages (InvivoGen, 8 to 13 passages), derived from human THP-1 monocytes, which stably express the gene for the alkaline phosphatase enzyme inducible by the NF-kB and AP-1 promoters.
The MTT dye (3-(4,5-dimethylthiazol-2-yl)-2,5-diphenyltetrazolium bromide) (Biotium) was used. This assay is based on the cleavage of the yellow MTT tetrazolium salt to form purple formazan crystals, produced by metabolically active cells. Formazan is solubilized with DMSO and its concentration is determined by spectrophotometry; the optical density is proportional to the number of viable cells.
To do this, the cells were seeded in 96-well plates at a density of 3×10^5 cells/mL in RPMI 1640 medium (Gibco) supplemented with 10% FBS, penicillin, streptomycin (both at a concentration of 100 μg/mL, Sigma-Aldrich), and PMA (100 ng/mL) (Sigma-Aldrich), and were cultured at 37° C., 5% CO2 for 48 h. […] The absorbance was measured in each well at 595 nm (problem) and 655 nm (background), following the manufacturer's instructions, using an iMark™ Microplate Absorbance Reader (Bio-Rad). The samples were analyzed in triplicate. The percentage of viable cells was calculated using the following formula: […]

Caco-2 cells = experiment: Viability / MTT cytotoxicity assay on Caco-2 intestinal epithelial cells; format: cell-based; details: Caco-2 epithelial cells, all concentrations used (1, 5 and 10 μM), 24 h (FIG. 3A)
Method: To quantify the percentage of cells that remained viable in each of the experiments, THP-1-XBlue™-CD14 macrophages (InvivoGen, 8 to 13 passages) were evaluated, derived from human THP-1 monocytes, which stably express the gene for the alkaline phosphatase enzyme inducible by the NF-kB and AP-1 promoters. Human intestinal epithelial Caco-2 cells (ATCC®, HTB-37TM, 10 to 12 passages) were also evaluated. To do this, Trypan blue (Gibco) was used as an exclusion stain. This dye penetrates cells with damaged membranes (a sign of cell death) and stains their cytoplasm dark blue. To do this, the cell suspensions tested were centrifuged at 500×g (5 min at 24° C.), the cell sediments were resuspended in 0.1 mL of PBS, and then 10 μL were mixed with 10 μL of trypan blue (0.4%) filtered through 0.22 μm. The percentage of live cells was determined in 10 μL of the above mixture using a chamber and a Countess™ cell counter (Invitrogen).
In this second cytotoxicity assessment on THP-1-XBlue-CD14 and Caco-2, the technique previously described was used with the MTT dye (3-(4,5-dimethylthiazol-2-yl)-2,5-diphenyltetrazolium bromide) (Biotium).
To do this, both types of cells were seeded in 96-well plates under conditions identical to those used in the anti-inflammation assays. The cells were then washed with PBS and treated with different compounds: 1) PBS (10 μL) (positive growth control, vehicle); 2) 20% DMSO (negative control, as high doses of this compound are cytotoxic); 3) different concentrations of the compounds PS1801 and PS1906 (1, 5, and 10 μM). The plates were incubated for 24 hours at 37° C., 5% CO2, and then 10 μL of MTT was added to each well and the plate was incubated for 4 hours at 37° C., 5% CO2. The formazan crystals formed were dissolved in 180 μL of DMSO, and the plate was incubated for 20 minutes with shaking at room temperature. The absorbance was measured in each well at 595 nm (problem) and 655 nm (background), following the manufacturer's instructions, using an iMark™ Microplate Absorbance Reader (Bio-Rad). The samples were analyzed in triplicate.

[3] = test system: acute lung injury (ALI) induced by LPS; experiment: Murine model of acute lung injury (ALI) induced by intratracheal LPS; format: in vivo, mouse (C57BL/6J-OlaHsd); details: mice
Excerpt: In order to evaluate the potential anti-inflammatory effect of the PS1906 molecule in an in vivo model, we selected the ALI model induced by tracheal instillation of lipopolysaccharide (LPS), which has been widely described in the literature and previously performed by members of the research group (Clemente-Moragón et al., 2020). This murine model is a model of acute lung inflammation or damage associated with a long-term fibrotic period, so it can be used to study both inflammatory lung diseases and pulmonary fibrotic processes.
Mice of the C57BL/6J-OlaHsd strain were chosen for this model. Adult mice were kept in pathogen-free conditions in a temperature-controlled room with a 12-hour light-dark cycle. Food and water were available ad libitum. The mice were anesthetized intraperitoneally with an injection of an anesthetic cocktail containing atropine sulfate (1 mg/kg; B. Braun, 1 mg/mL), xylazine hydrochloride (20 mg/kg; Rompun® Bayer, 20 mg/mL), and ketamine (100 mg/kg; Anesketin Dechra, 100 mg/mL). All experimental and other scientific procedures involving animals complied with EU Directive 2010/63EU and Recommendation 2007/526/EC, enacted into Spanish law under Real Decreto 53/2013. Animal protocols were approved by local ethics committees and the Animal Protection Area of the Autonomous Community of Madrid.
In vitro studies were taken into account when selecting the doses to be administered, with a concentration of 10 μM being considered the maximum effective (non-toxic) concentration. Assuming an approximate blood volume of 2 mL for a mouse weighing about 30 g, and taking into account a loss due to distribution, metabolism, or secretion of 50% of the products, we calculated dose 1 (D1) and selected dose 2 (D2) as twice the first. Thus, taking into account the respective molecular weights, the corresponding doses for the PS1906 product were 156 μg/kg (D1) and 312 μg/kg (D2). Physiological saline was used as a diluent for the preparation of the different doses. All doses were prepared to administer the same volume in the mouse. The doses were administered intravenously with the animal properly anesthetized moments before the induction of pulmonary inflammation. […]
After 24 h, the animals were sacrificed and the lungs were washed with 1.5 mL of cold PBS through a tracheal catheter (Introcan Safety 22G, Braun), and a total of 1 mL of bronchoalveolar lavage fluid was extracted from each mouse for the detection of neutrophils and lymphocytes by flow cytometry. […] The data were analyzed with FlowJo software (Ashland). […]

| SMILES | Alk5 kinase inhibition [1] | cytotoxic effects (cell viability) [2] | cytotoxic effects (cell viability) (Caco-2 cells) | % kinase activity reduction [1] [%] | ALI score (histopathological lung damage) ([3]; i.v. 156 μg/kg (D1) and 312 μg/kg (D2), LPS 10 mg/kg intratracheal, 24 h (FIG. 6A, 6B), listed as PS1906) | neutrophils in bronchoalveolar lavage fluid (flow cytometry) ([3]; i.v. 156 μg/kg (D1) and 312 μg/kg (D2), LPS 10 mg/kg intratracheal, 24 h (FIG. 6C)) | lymphocytes in bronchoalveolar lavage fluid (flow cytometry) ([3]; i.v. 156 μg/kg (D1) and 312 μg/kg (D2), LPS 10 mg/kg intratracheal, 24 h (FIG. 6D), not statistically significant) | total number of infiltrated cells in bronchoalveolar lavage fluid (flow cytometry) ([3]; i.v. D1 and D2, LPS intratracheal, 24 h) |
| --- | --- | --- | --- | --- | --- | --- | --- | --- |
| O.O=C(NC1CCOCC1)c1ccc(-c2cc(-c3c[nH]nc3-c3ccccn3)ccn2)cc1 [GW788388, 4-{4-[3-(pyridin-2-yl)-1H-pyrazol-4-yl]-pyridin-2-yl}-N-(tetrahydro-2H-pyran-4-yl)benzamide hydrate, reference compound] | approximately 25% | lacking cytotoxic activity | lacking cytotoxic activity | – | – | – | – | – |
| Oc1ccc(-c2ccn3ccnc3c2)cc1 [Compound 12, 4-(Imidazo[1,2-a]pyridin-7-yl)phenol] | – | – | – | 87.5 | – | – | – | – |
| c1ccc2oc(-c3ccn4ccnc4c3)cc2c1 [Compound 26, 7-(Benzofuran-2-yl)imidazo[1,2-a]pyridine] | one of those that showed the greatest inhibitory effect | – | no cytotoxic effects | 93.4 | significantly different from the group of sick mice treated with LPS; also recorded: positive effect | dose-dependent anti-inflammatory effect | dose-dependent anti-inflammatory effect | dose-dependent anti-inflammatory effect |
| COc1ccc(-c2cn3ccc(-c4ccc(O)cc4)cc3n2)cc1 [Compound 16, 4-(2-(4-Methoxyphenyl)imidazo[1,2-a]pyridin-7-yl)phenol] | – | – | – | 75.4 | – | – | – | – |
| CCOC(=O)c1cc2cc(-c3cnc4ccccn34)ccc2[nH]1 [Compound 31, Ethyl 5-(imidazo[1,2-a]pyridin-3-yl)-1H-indole-2-carboxylate] | – | – | no cytotoxic effects | 79.1 | – | – | – | – |
